In patent US20240132498A1, “CRYSTALLINE FORMS OF 5-(3,4-DIFLUOROBENZYL)-8-((1R,4R)-4-METHYLCYCLOHEXYL)-6,9-DIOXO-2,5,8-TRIAZASPIRO[3.5]NONANE-2-CARBALDEHYDE” (Cytokinetics, Incorporated, priority 2022, published 2024):
“Also recorded” adds a separate entry of the source. One block for each compound: values may come before it.

Experiments:
CYP2D6 = target: T1, CYP2D6 (Homo sapiens, UniProt P10635); test: Time-dependent inhibition of CYP450 enzymes in human liver microsomes: CYP2D6; type: in vitro ADME; conditions: for fold change in activity (time dependent inhibition), 2D6: human liver microsomes
T1 construct: from tissue; host or cells: pooled human liver microsomes
Experimental: (§1) An assessment of the time-dependent Inhibitory Potential of the test compounds against Principal Human Cytochrome P450 Isozymes using Human Liver Microsomes was also carried out using standard methods (Grimm et al, Drug Metab. Dispos., Jul; 37(7):1355-70. doi: 10.1124/dmd.109.026716, 2009). Pooled human microsomes and selective CYP probe substrates were used for in vitro assessment of test compounds at 25 and 50 μM as time-dependent inhibitors of […] human hepatic cytochrome P450 isozymes (CYP1A2, 2B6, 2C9, 2C19, 2D6, and 3A4). LC-MS/MS was used to quantify metabolite formation. The inhibition of each P450 enzyme in human liver microsomes was measured as the percentage decrease in the activity of marker metabolite formation as measured by LC-MS/MS compared to non-inhibited controls (=100% activity) at time zero and after 30 minutes incubation. The occurrence of any time dependent inhibition was then expressed as the fold change in enzyme activity at time zero relative to the activity after 30 minutes incubation. The time dependent inhibition for the compound 5-(3,4-difluorobenzyl)-8-((1 r,4r)-4-methylcyclohexyl)-6,9-dioxo-2,5, 8-triazaspiro [3.5]nonane-2-carbaldehyde (Compound 1) against CYP1A2, […], CYP2C8, CYP2C9, CYP2C19, CYP2D6, CYP3A4-M and CYP3A4-T is shown in Table B-12.

CYP2B6 = target: T2, CYP2B6 (Homo sapiens, UniProt P20813); test: Time-dependent inhibition of CYP450 enzymes in human liver microsomes: CYP2B6; type: in vitro ADME
T2 construct: from tissue; host or cells: pooled human liver microsomes
T2 sequence (P20813 1-491): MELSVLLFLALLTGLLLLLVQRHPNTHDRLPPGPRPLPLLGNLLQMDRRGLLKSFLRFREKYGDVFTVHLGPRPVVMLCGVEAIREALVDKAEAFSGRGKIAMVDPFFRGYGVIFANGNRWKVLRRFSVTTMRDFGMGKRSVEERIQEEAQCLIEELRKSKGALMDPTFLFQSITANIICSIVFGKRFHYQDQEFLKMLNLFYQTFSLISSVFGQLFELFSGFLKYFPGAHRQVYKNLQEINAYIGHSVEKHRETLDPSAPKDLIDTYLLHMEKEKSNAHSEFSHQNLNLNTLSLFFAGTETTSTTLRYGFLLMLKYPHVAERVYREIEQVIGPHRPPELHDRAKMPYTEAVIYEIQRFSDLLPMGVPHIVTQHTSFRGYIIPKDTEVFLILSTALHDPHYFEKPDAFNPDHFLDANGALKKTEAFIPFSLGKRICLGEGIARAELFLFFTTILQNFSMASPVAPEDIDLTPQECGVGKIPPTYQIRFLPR
Experimental: as §1

CYP2C19 = target: T3, CYP2C19 (Homo sapiens, UniProt P33261); test: Time-dependent inhibition of CYP450 enzymes in human liver microsomes: CYP2C19; type: in vitro ADME; conditions: for fold change in activity (time dependent inhibition), 2C19: human liver microsomes
T3 construct: from tissue; host or cells: pooled human liver microsomes
Experimental: as §1

[1] = Stability of Form II in solvents after 24 hours (HPLC); type: physicochemical; conditions: for Form II Peak Area T = 24 hours: 24 hours at ambient (25° C.); for Form II Peak Area: initial injection; for Visual Observations (signs of degradation in chromatograms): initial vs T = 24 hours;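 for Form II Peak Area T = 24 hours: same diluted solubility sample reinjected at the initial injection volume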
From the text: The chromatograms were then overlayed and visual signs of degradation were noted, i.e., loss of compound 1 peak area or increase of other peaks in the chromatography.

[2] = Competitive slurry experiments between Form I and Form II; type: physicochemical; conditions: competitive slurries of a mechanical mixture of Form I and Form II, range of temperatures (5-50)
From the text: The results of the competitive slurry experiments are provided below in Table 6.

T3 sequence (P33261 whole entry): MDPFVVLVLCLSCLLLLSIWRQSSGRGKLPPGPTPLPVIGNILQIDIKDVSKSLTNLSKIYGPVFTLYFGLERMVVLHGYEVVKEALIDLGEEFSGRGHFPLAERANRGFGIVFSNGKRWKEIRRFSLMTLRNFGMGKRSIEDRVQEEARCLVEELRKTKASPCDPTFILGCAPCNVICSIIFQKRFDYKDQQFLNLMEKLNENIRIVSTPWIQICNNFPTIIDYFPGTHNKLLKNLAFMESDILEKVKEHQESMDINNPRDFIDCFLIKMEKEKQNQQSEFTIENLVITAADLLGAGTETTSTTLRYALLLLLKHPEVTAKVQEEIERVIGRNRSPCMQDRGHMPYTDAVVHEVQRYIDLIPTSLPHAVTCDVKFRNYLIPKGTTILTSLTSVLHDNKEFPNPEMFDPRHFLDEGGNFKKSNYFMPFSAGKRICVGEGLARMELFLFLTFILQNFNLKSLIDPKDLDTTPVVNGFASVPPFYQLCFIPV
T1 sequence (P10635 whole entry): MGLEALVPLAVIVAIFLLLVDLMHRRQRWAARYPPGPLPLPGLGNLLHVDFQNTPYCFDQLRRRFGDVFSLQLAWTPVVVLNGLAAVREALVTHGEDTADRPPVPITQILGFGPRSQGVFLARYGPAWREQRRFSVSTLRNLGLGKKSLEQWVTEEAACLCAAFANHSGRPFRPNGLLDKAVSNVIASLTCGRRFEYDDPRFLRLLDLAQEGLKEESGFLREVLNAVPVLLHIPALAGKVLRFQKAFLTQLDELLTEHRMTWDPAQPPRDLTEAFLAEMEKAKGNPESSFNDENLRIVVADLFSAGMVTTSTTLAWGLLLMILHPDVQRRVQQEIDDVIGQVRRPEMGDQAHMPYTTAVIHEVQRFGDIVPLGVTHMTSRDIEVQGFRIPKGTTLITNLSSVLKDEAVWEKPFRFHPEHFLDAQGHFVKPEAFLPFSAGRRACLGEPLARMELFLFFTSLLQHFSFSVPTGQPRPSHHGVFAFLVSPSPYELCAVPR

(% Activity NADPH T0)/(% Activity NADPH T30) (CYP2D6; CYP2D6, 25 μM): 1.3 | (% Activity NADPH T0)/(% Activity NADPH T30) (CYP2D6; CYP2D6, 50 μM): 1.1 | fold change in activity (time dependent inhibition), 2D6 (CYP2D6; 25 μM): 1.3 fold | fold change in activity (time dependent inhibition), 2D6 (CYP2D6; 50 μM): no change in activity | activity at 30 min, 25 µM (CYP2D6; human, pooled human liver microsomes, CYP2D6, 25 μM, 30 minutes incubation, read-out: % Activity NADPH T30): 90% | activity at 0 min, 25 µM (CYP2D6; human, pooled human liver microsomes, CYP2D6, 25 μM, time zero, read-out: % Activity NADPH T0): 118% | activity at 30 min, 50 µM (CYP2D6; human, pooled human liver microsomes, CYP2D6, 50 μM, 30 minutes incubation, read-out: % Activity NADPH T30): 88% | activity at 0 min, 50 µM (CYP2D6; human, pooled human liver microsomes, CYP2D6, 50 μM, time zero, read-out: % Activity NADPH T0): 93% | (% Activity NADPH T0)/(% Activity NADPH T30) (CYP2B6; CYP2B6, 25 μM): 1.1 | (% Activity NADPH T0)/(% Activity NADPH T30) (CYP2B6; CYP2B6, 50 μM): 1.0 | activity at 30 min, 25 µM (CYP2B6; human, pooled human liver microsomes, CYP2B6, 25 μM, 30 minutes incubation, read-out: % Activity NADPH T30): 84% | activity at 0 min, 25 µM (CYP2B6; human, pooled human liver microsomes, CYP2B6, 25 μM, time zero, read-out: % Activity NADPH T0): 95% | activity at 30 min, 50 µM (CYP2B6; human, pooled human liver microsomes, CYP2B6, 50 μM, 30 minutes incubation, read-out: % Activity NADPH T30): 76% | activity at 0 min, 50 µM (CYP2B6; human, pooled human liver microsomes, CYP2B6, 50 μM, time zero, read-out: % Activity NADPH T0): 76% | (% Activity NADPH T0)/(% Activity NADPH T30) (CYP2C19; CYP2C19, 25 μM): 1.4 | (% Activity NADPH T0)/(% Activity NADPH T30) (CYP2C19; CYP2C19, 50 μM): 1.1 | fold change in activity (time dependent inhibition), 2C19 (CYP2C19; 25 μM): 1.4 fold | fold change in activity (time dependent inhibition), 2C19 (CYP2C19; 50 μM): no change in activity | activity at 30 min, 25 µM (CYP2C19; human, pooled human liver microsomes, CYP2C19, 25 μM, 30 minutes incubation, read-out: % Activity NADPH T30): 86% | activity at 0 min, 25 µM (CYP2C19; human, pooled human liver microsomes, CYP2C19, 25 μM, time zero, read-out: % Activity NADPH T0): 117% | activity at 30 min, 50 µM (CYP2C19; human, pooled human liver microsomes, CYP2C19, 50 μM, 30 minutes incubation, read-out: % Activity NADPH T30): 75% | activity at 0 min, 50 µM (CYP2C19; human, pooled human liver microsomes, CYP2C19, 50 μM, time zero, read-out: % Activity NADPH T0): 84%
SMILES: C[C@H]1CC[C@H](N2CC(=O)N(Cc3ccc(F)c(F)c3)C3(CN(C=O)C3)C2=O)CC1 [Compound 1, 5-(3,4-difluorobenzyl)-8-((1r,4r)-4-methylcyclohexyl)-6,9-dioxo-2,5,8-triazaspiro[3.5]nonane-2-carbaldehyde]

Form II Peak Area T = 24 hours ([1]; 2-BuOH): 35.2 | Form II Peak Area ([1]; 2-BuOH): 35.3 | Visual Observations (signs of degradation in chromatograms) ([1]; 2-BuOH): No sign of degradation | Form II Peak Area T = 24 hours ([1]; 2-Me-THF): 51.5 | Form II Peak Area ([1]; 2-Me-THF): 51.7 | Visual Observations (signs of degradation in chromatograms) ([1]; 2-Me-THF): No sign of degradation | Form II Peak Area T = 24 hours ([1]; Acetone): 167.7 | Form II Peak Area ([1]; Acetone): 166.0 | Form II Peak Area T = 24 hours ([1]; DI Water): 10.8 | Form II Peak Area ([1]; DI Water): 10.8 | Visual Observations (signs of degradation in chromatograms) ([1]; DI Water): No sign of degradation | Form II Peak Area T = 24 hours ([1]; DMSO): 194.2 | Form II Peak Area ([1]; DMSO): 193.2 | Form II Peak Area T = 24 hours ([1]; EtOH): 54.7 | Form II Peak Area ([1]; EtOH): 53.1 | Form II Peak Area T = 24 hours ([1]; IPA): 30.5 | Form II Peak Area ([1]; IPA): 30.3 | Visual Observations (signs of degradation in chromatograms) ([1]; IPA): No sign of degradation | Form II Peak Area T = 24 hours ([1]; Isopropyl acetate): 66.3 | Form II Peak Area ([1]; Isopropyl acetate): 66.6 | Form II Peak Area T = 24 hours ([1]; MIBK): 85.1 | Form II Peak Area ([1]; MIBK): 85.1 | Visual Observations (signs of degradation in chromatograms) ([1]; MIBK): No sign of degradation | Form II Peak Area T = 24 hours ([1]; MeCN): 190.4 | Form II Peak Area ([1]; MeCN): 188.0 | Form II Peak Area T = 24 hours ([1]; MeOH): 202.1 | Form II Peak Area ([1]; MeOH): 199.0 | Form II Peak Area T = 24 hours ([1]; THF): 177.4 | Form II Peak Area ([1]; THF): 177.3 | Form II Peak Area T = 24 hours ([1]; Tert-Butylmetyl ether): 24.7 | Form II Peak Area ([1]; Tert-Butylmetyl ether): 24.2 | Visual Observations (signs of degradation in chromatograms) ([1]; Tert-Butylmetyl ether): Large impurity peak eluting after | Form II Peak Area T = 24 hours ([1]; Toluene): 40.5 | Form II Peak Area ([1]; Toluene): 41.2 | Visual Observations (signs of degradation in chromatograms) ([1]; Toluene): No sign of degradation | relative thermodynamic stability of Form I and Form II [2]: most stable form
SMILES: C[C@H]1CC[C@H](N2CC(=O)N(Cc3ccc(F)c(F)c3)C3(CN(C=O)C3)C2=O)CC1 [Form II, 5-(3,4-difluorobenzyl)-8-((1r,4r)-4-methylcyclohexyl)-6,9-dioxo-2,5,8-triazaspiro[3.5]nonane-2-carbaldehyde]
Visual Observations (signs of degradation in chromatograms) ([1]; Acetone): no visual signs of further degradation; also recorded: No sign of degradation | Visual Observations (signs of degradation in chromatograms) ([1]; DMSO): no visual signs of further degradation; also recorded: No sign of degradation | Visual Observations (signs of degradation in chromatograms) ([1]; EtOH): did not appear to degrade further; also recorded: Late eluting impurity peak, present | Visual Observations (signs of degradation in chromatograms) ([1]; Isopropyl acetate): did not seem to degrade further; also recorded: Impurities eluting after compound 1 | Visual Observations (signs of degradation in chromatograms) ([1]; MeCN): no visual signs of further degradation; also recorded: No sign of degradation | Visual Observations (signs of degradation in chromatograms) ([1]; MeOH): no visual signs of further degradation; also recorded: No sign of degradation | Visual Observations (signs of degradation in chromatograms) ([1]; THF): no visual signs of further degradation; also recorded: No sign of degradation
